Key:
Type in all cases: in vivo
[1] = system: redroot pigweed (Amaranthus retroflexus, AMARE); experiment: Pre-emerge test, greenhouse herbicide activity screening; conditions: pre-emerge, 14 days after application, scale 0-100
Outline: (§1)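 Rating: 0–100 visual injury, 14 DAA. Application: acetone, 187 l/ha, 15–1000 g ai/ha, flat-fan track sprayer with nozzle 40–45 cm above soil or canopy. Post-emerge runs used 0.25% v/v surfactant on 2–3 leaf plants.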

[2] = system: barnyardgrass (Echinochloa crus-galli, ECHCG); experiment: as above; conditions: pre-emerge, 14 days after application, scale 0-100
Description: (§2) A standard greenhouse herbicide activity screening system was used to evaluate the herbicidal efficacy and crop safety of these test compounds. Seven broadleaf weed species including redroot pigweed (Amaranthus retroflexus, AMARE, velvetleaf (Abutilon theophrasti, ABUTH), sicklepod (Cassia obtusifolia, CASOB), ivyleaf morningglory (Ipomoea hederacea, IPOHE), lambsquarters (Chenopodium album, CHEAL), common ragweed (Ambrosia artemisizfolia L., AMBEL), and cocklebur (Xanthium strumarium, XANST) were used as test species. Four grass weed species including green foxtail (Setaria viridis, SETVI), barnyardgrass (Echinochloa crus-galli, ECHCG), johnsongrass (Sorghum halepense, SORHA), and large crabgrass (Digitaria sanguinalis, DIGSA) were also used. In addition, three crop species, field corn (Zea mays L., var. Dekalb 535, CORN), soybean (Glycine max L., var. Pella 86, SOY), and is upland rice (Oryza sp., var. Tebonnet, RICE) were included.
(§3) All plants were grown in 10 cm square plastic pots which were filled with a sandy loam soil mix. For pre-emerge tests, seeds were planted one day prior to application of the test compounds. For post-emerge tests, seeds were planted 8-21 days prior to the test to allow emergence and good foliage development prior to application of the test substances. At the time of the post-emerge application, plants of all species were usually at the 2-3 leaf stage of development.
(§4) All test compounds Were dissolved in acetone and applied to the test units in a volume of 187 l /ha. Test materials were applied at rates ranging from 15 g ai/ha to 1000 g ai/ha using a track sprayer equipped with a TJ8001E even flow flat fan spray nozzle. Plants were arranged on a shelf so that the top of the canopy (post-emerge) or top of the soil surface (pre-emerge) was 40-45 cm below the nozzle. Pressurized air was used to force the test solution through the nozzle as it was mechanically advanced (via electrically driven chain drive) over the top of all test plants/pots. This application simulates a typical commercial field herbicide application.
(§5) In the post-emerge test, a commercial non-ionic surfactant was also included (0.25% v/v) to enhance wetting of the leaf surfaces of target plants. Immediately after application, test units of the pre-emerge applications were watered at the soil surface to incorporate the test materials. Subsequently, these test units were bottom-watered. Post-emerge test units were always bottom-watered.
(§6) At 14 days after application of the test materials, phytotoxicity ratings were recorded. A rating scale of 0-100 was used as previously described in Research Methods in Weed Science, 2nd edition, B. Truelove, Ed., Southern Weed Science Society, Auburn University, Auburn, Ala. 1977. Briefly, “0” corresponds to no damage and “100” corresponds to complete death of all plants in the test unit. This scale was used both to determine efficacy against weed species and damage to crop species. Herbicide activity data for various compounds of this invention, which are shown by compound No. in Tables 1-8, are shown in Tables 11 and 12.

[3] = system: green foxtail (Setaria viridis, SETVI); experiment: as above; conditions: pre-emerge, 14 days after application, scale 0-100
Description: as §2, §3, §4, §5, §6

[4] = system: ivyleaf morningglory (Ipomoea hederacea, IPOHE); experiment: as above; conditions: pre-emerge, 14 days after application, scale 0-100
Description: as §2, §3, §4, §5, §6

[5] = system: lambsquarters (Chenopodium album, CHEAL); experiment: as above; conditions: pre-emerge, 14 days after application, scale 0-100
Description: as §2, §3, §4, §5, §6

[6] = system: large crabgrass (Digitaria sanguinalis, DIGSA); experiment: as above; conditions: pre-emerge, 14 days after application, scale 0-100
Description: as §2, §3, §4, §5, §6

[7] = system: sicklepod (Cassia obtusifolia, CASOB); experiment: as above; conditions: pre-emerge, 14 days after application, scale 0-100
Description: as §2, §3, §4, §5, §6

[8] = system: velvetleaf (Abutilon theophrasti, ABUTH); experiment: as above; conditions: pre-emerge, 14 days after application, scale 0-100
Description: as §2, §3, §4, §5, §6

[9] = system: field corn (Zea mays L., var. Dekalb 535, CORN); experiment: Pre-emerge test, crop safety; conditions: pre-emerge, 14 days after application, scale 0-100
Outline: (§7)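 Herbicidal damage is scored 0 (none) to 100 (complete plant death) two weeks after a simulated field spray. Rates span 15–1000 g ai/ha, delivered in acetone at 187 l/ha. For post-emergence treatments, plants have 2–3 leaves and the spray carries 0.25% v/v non-ionic surfactant.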

[10] = system: upland rice (Oryza sp., var. Tebonnet, RICE); experiment: Pre-emerge test, crop safety; conditions: pre-emerge, 14 days after application, scale 0-100
Outline: as §7

[11] = system: barnyardgrass (Echinochloa crus-galli, ECHCG); experiment: Post-emerge test, greenhouse herbicide activity screening; conditions: post-emerge, 14 days after application, rating scale 0-100
Description: as §2, §3, §4, §5, §6

[12] = system: green foxtail (Setaria viridis, SETVI); experiment: as above; conditions: post-emerge, 14 days after application, rating scale 0-100
Description: as §2, §3, §4, §5, §6

[13] = system: ivyleaf morningglory (Ipomoea hederacea, IPOHE); experiment: as above; conditions: post-emerge, 14 days after application, rating scale 0-100
Description: as §2, §3, §4, §5, §6

[14] = system: lambsquarters (Chenopodium album, CHEAL); experiment: as above; conditions: post-emerge, 14 days after application, rating scale 0-100
Description: as §2, §3, §4, §5, §6

[15] = system: large crabgrass (Digitaria sanguinalis, DIGSA); experiment: as above; conditions: post-emerge, 14 days after application, rating scale 0-100
Description: as §2, §3, §4, §5, §6

[16] = system: redroot pigweed (Amaranthus retroflexus, AMARE); experiment: as above; conditions: post-emerge, 14 days after application, rating scale 0-100
Description: as §2, §3, §4, §5, §6

[17] = system: sicklepod (Cassia obtusifolia, CASOB); experiment: as above; conditions: post-emerge, 14 days after application, rating scale 0-100
Description: as §2, §3, §4, §5, §6

[18] = system: velvetleaf (Abutilon theophrasti, ABUTH); experiment: as above; conditions: post-emerge, 14 days after application, rating scale 0-100
Description: as §2, §3, §4, §5, §6

[19] = system: field corn (Zea mays L., var. Dekalb 535, CORN); experiment: Post-emerge test, crop safety; conditions: post-emerge, 14 days after application, rating scale 0-100
Outline: as §1

[20] = system: upland rice (Oryza sp., var. Tebonnet, RICE); experiment: Post-emerge test, crop safety; conditions: post-emerge, 14 days after application, rating scale 0-100
Outline: as §1

## COc1c(C#N)cc(F)c(-n2c(=O)cc(C(F)(F)F)n(C)c2=O)c1NC(=O)c1ccc2ccccc2c1 [2-180]
[1]; 63 g ai/ha
  phytotoxicity rating AMARE: 100
[1]; 250 g ai/ha
  phytotoxicity rating AMARE: 100
[2]; 63 g ai/ha
  phytotoxicity rating ECHCG: 10
[2]; 250 g ai/ha
  phytotoxicity rating ECHCG: 80
[3]; 63 g ai/ha
  phytotoxicity rating SETVI: 30
[3]; 250 g ai/ha
  phytotoxicity rating SETVI: 90
[4]; 63 g ai/ha
  phytotoxicity rating IPOHE: 60
[4]; 250 g ai/ha
  phytotoxicity rating IPOHE: 100
[5]; 63 g ai/ha
  phytotoxicity rating CHEAL: 100
[5]; 250 g ai/ha
  phytotoxicity rating CHEAL: 100
[6]; 63 g ai/ha
  phytotoxicity rating DIGSA: 20
[6]; 250 g ai/ha
  phytotoxicity rating DIGSA: 90
[7]; 63 g ai/ha
  phytotoxicity rating CASOB: 40
[7]; 250 g ai/ha
  phytotoxicity rating CASOB: 50
[8]; 63 g ai/ha
  phytotoxicity rating ABUTH: 100
[8]; 250 g ai/ha
  phytotoxicity rating ABUTH: 100
[9]; 63 g ai/ha
  phytotoxicity rating CORN (crop damage): 0
[9]; 250 g ai/ha
  phytotoxicity rating CORN (crop damage): 5
[10]; 63 g ai/ha
  phytotoxicity rating RICE (crop damage): 40
[10]; 250 g ai/ha
  phytotoxicity rating RICE (crop damage): 70
[11]; 63 g ai/ha
  ECHCG phytotoxicity rating: 40
[11]; 250 g ai/ha
  ECHCG phytotoxicity rating: 60
[12]; 63 g ai/ha
  SETVI phytotoxicity rating: 60
[12]; 250 g ai/ha
  SETVI phytotoxicity rating: 70
[13]; 63 g ai/ha
  IPOHE phytotoxicity rating: 100
[13]; 250 g ai/ha
  IPOHE phytotoxicity rating: 100
[14]; 63 g ai/ha
  CHEAL phytotoxicity rating: 100
[14]; 250 g ai/ha
  CHEAL phytotoxicity rating: 100
[15]; 63 g ai/ha
  DIGSA phytotoxicity rating: 40
[15]; 250 g ai/ha
  DIGSA phytotoxicity rating: 40
[16]; 63 g ai/ha
  AMARE phytotoxicity rating: 100
[16]; 250 g ai/ha
  AMARE phytotoxicity rating: 100
[17]; 63 g ai/ha
  CASOB phytotoxicity rating: 100
[17]; 250 g ai/ha
  CASOB phytotoxicity rating: 100
[18]; 63 g ai/ha
  ABUTH phytotoxicity rating: 100
[18]; 250 g ai/ha
  ABUTH phytotoxicity rating: 100
[19]; 63 g ai/ha
  CORN phytotoxicity rating (crop damage): 5
[19]; 250 g ai/ha
  CORN phytotoxicity rating (crop damage): 20
[20]; 63 g ai/ha
  RICE phytotoxicity rating (crop damage): 20
[20]; 250 g ai/ha
  RICE phytotoxicity rating (crop damage): 65
